Reference: patent US7595320B2, “Hydrazinocarbonyl-thieno[2,3-C]pyrazoles, process for preparing them, compositions containing them and use thereof” (Aventis Pharma S.A., priority 2005, dated 2009)

Tests used:
Assay type in all cases: biochemical
[1] = molecular target: T1, Tie2 (Homo sapiens, UniProt Q02763); assay: Tie2 kinase test, phosphorylation of PLC with GST-Tie2; conditions: GST-Tie2 intracellular domain 776-1124
T1 construct: amino acids of the intracellular domain 776-1124; made in house; host or cells: baculovirus expression (pFastBacGT vector)
Protocol: The coding sequence of human Tie2 corresponding to the amino acids of the intracellular domain 776-1124 was generated by PCR using the cDNA isolated from a human placenta as a model. This sequence was introduced into a pFastBacGT baculovirus expression vector in the form of a GST fusion protein.
The inhibitory effect of the molecules is determined in a test of phosphorylation of PLC with Tie2 in the presence of GST-Tie2 purified to about 80% homogeneity. The substrate is composed of the SH2-SH3 fragments of PLC expressed in the form of a GST fusion protein.
The kinase activity of Tie2 is measured in a MOPS 20 mM pH 7.2 buffer, containing 10 mM MgCl2, 10 mM MnCl2, 1 mM DTT, 10 mM of glycerophosphate. In a 96-well FlashPlate plate maintained on ice, a reaction mixture is deposited, composed of 70 μL of kinase buffer containing 100 ng of enzyme GST-Tie2 per well. Next, 10 μL of the test molecule diluted in DMSO to a maximum concentration of 10% are added. For a given concentration, each measurement is performed four times. The reaction is initiated by adding 20 μL of solution containing 2 μg of GST-PLC, 2 μm of cold ATP and 1 μCi of ^33P[ATP]. After incubation for one hour at 37° C., the reaction is stopped by adding 1 volume (100 μl) of 200 mM EDTA. After removal of the incubation buffer, the wells are washed three times with 300 μL of PBS. The radioactivity is measured on a MicroBeta1450 Wallac.
The inhibition of the Tie2 activity is calculated and expressed as a percentage of inhibition relative to the control activity determined in the absence of compound.

[2] = molecular target: T2, CDK2/cycline E (Homo sapiens, UniProt P24941); assay: CDK2/cyclineE Flashplate test in 96-well format; conditions: CDK2/cycline E complex, 1 μM ATP
T2 construct: made in house; host or cells: Sf21 insect cells (baculovirus coinfection)
Protocol: Two recombinant baculoviruses bearing the human sequences coding, respectively, for CDK2 and cyclineE (the latter bearing a C-terminal hexahistidine tag) are used to coinfect Sf21 insect cells. Two to three days after the start of coinfection, the cells are harvested by centrifugation and then stored at −40° C. until the time of use.
A format in streptavidin-coated 96-well plates is used to test the activity of the compounds on the kinase activity of CDK2/cycline E.
To perform this test, the biotinylated peptide substrate, a fragment of the protein pRb (biotinyl-[…]-OH), is dissolved at a concentration of 1 mM in kinase buffer (HEPES/NaOH 50 mM, NaCl 1 mM, MgCl2 5 mM, pH 7.5) in order to constitute a stock solution stored at −20° C. in the form of 110 μL aliquots. On the day of the experiment, an aliquot of this solution is thawed and diluted in kinase buffer containing 1 mM of dithiothreitol, added to the buffer extemporaneously, in order to obtain a concentration of 14.3 μM. 70 μL of this solution are added to each well of the Flashplate in order to obtain a final substrate concentration of 10 μM during the enzymatic reaction performed in a final volume of the reaction medium of 100 μL (cf. below).
Intermediate dilutions of inhibitors (products of the invention) at various concentrations are prepared in DMSO from stock solutions at 10 mM in separate tubes. Dilutions at 1000 μM, 333.3 μM, 111.1 μM, 37.03 μM, 12.35 μM, 4.11 μM and 1.37 μM are thus prepared. One μL of each of these solutions (or 1 μL of DMSO for the controls) is transferred into the wells of the test plate.
19 μl of a solution of a mixture of adenosine triphosphate (ATP) and of ATPγ^33P in kinase buffer at a total concentration of 5.26 μM of ATP and 52.6 μCi/ml of ^33P are then added to each well. The enzymatic reaction is initiated by adding 10 μL per well of a 200 nM solution of CDK2/cycline E in kinase buffer containing 1 mM of dithiothreitol (or 10 μL of kinase buffer containing 1 mM of dithiothreitol for the reaction blanks).
After addition of each of the reagents, the final volume of each well is 100 μL, the final concentration of substrate is 10 μM, the final inhibitor concentrations are 10 μM, 3.33 μM, 1.11 μM, 0.37 μM, 0.123 μM, 0.041 μM and 0.014 μM (according to the concentration of the intermediate dilution), the final ATP concentration is 1 μM, the final amount of ^33P is 1 μCi/well, and the final concentration of CDK2/cycline E complex is 20 nM.
After addition of all of the reagents, the test plate is incubated at 30° C. with orbital shaking at 650 rpm.
When the incubation is complete, the plate is washed three times with 300 μL per well of PBS (phosphate-buffered saline, pH=7.4, without calcium or magnesium, reference 10010-015, Gibco BRL). The incorporation of ^33P to the peptide is quantified by scintillation counting with a Packard Topcount.NXT machine.

[3] = molecular target: T3, Aurora2 (Homo sapiens, UniProt O14965); assay: Aurora2 enzymatic test, NuMA phosphorylation with [33P]ATP, Flashplate; conditions: whole recombinant protein, 1 μM ATP
T3 construct: Aurora2: whole recombinant protein comprising an N-terminal histidine tail; His tag (N); made in house; host or cells: E. coli
T3 sequence (O14965 1-403): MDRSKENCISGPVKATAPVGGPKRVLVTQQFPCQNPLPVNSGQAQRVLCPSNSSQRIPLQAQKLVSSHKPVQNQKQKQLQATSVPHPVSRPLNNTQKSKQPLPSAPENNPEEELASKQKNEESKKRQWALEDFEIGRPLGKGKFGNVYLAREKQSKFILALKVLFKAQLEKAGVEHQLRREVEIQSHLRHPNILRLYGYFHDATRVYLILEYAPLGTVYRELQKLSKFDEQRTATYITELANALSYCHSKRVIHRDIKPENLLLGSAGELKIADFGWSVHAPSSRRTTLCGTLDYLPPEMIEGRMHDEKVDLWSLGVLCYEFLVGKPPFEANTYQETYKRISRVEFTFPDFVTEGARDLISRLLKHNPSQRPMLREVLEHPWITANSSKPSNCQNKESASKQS
Protocol: (§1) The inhibitory effect of compounds with respect to the kinases Aurora1 and Aurora2 is determined by means of an enzymatic test using radioactivity detection.
(§2) The kinase activity of Aurora1 and Aurora2 is evaluated via the phosphorylation of the substrate Numa-histidine in the presence of radiolabelled ATP ([^33P]ATP) using 96-well Flashplate plates in which the nickel chelate is bound to the surface of the microplate. The amount of ^33P phosphate incorporated into the NuMA substrate is proportional to the activity of the enzyme Aurora1 or Aurora2.
Aurora2: whole recombinant protein comprising an N-terminal histidine tail, was expressed in E. coli and purified to more than 82%.
(§3) NuMA (nuclear protein that combines with the mitotic apparatus): 424-amino acid fragment, expressed in E. coli, the N-terminal end of which has been labeled with histidine, and used as substrate for the two Aurora enzymes.
(§4) The microplates used are 96-well Flash-Plate plates, nickel chelate (Perkin-Elmer, model SMP107).
(§5) The products to be evaluated are incubated in a reaction volume of 100 μL per well, in the presence of 10 nM of Aurora1 or Aurora2, 500 nM of NuMA substrate in a buffer composed of 50 mM Tris/HCl (pH 7.5), 50 mM NaCl, 5 mM MgCl2 (Aurora-B) or 10 mM MgCl2 (Aurora-A) and 1 mM DTT, at 37° C.
(§6) 80 μL of enzyme/substrate incubation buffer are distributed in each well, followed by 10 μL of product to be evaluated, at variable concentrations. The reaction is initiated by adding 1 μM final of ATP containing 0.2 μCi of [^33P]ATP (10 μL). After incubating for 30 minutes, the reaction is quenched by simple removal of the reaction buffer and each well is washed twice with 300 μl of Tris/HCl buffer. The radioactivity is then measured in each well using a Packard, Top-Count model scintillation machine.
(§7) The control enzymatic activity of Aurora is expressed by the number of counts per minute obtained over 30 minutes after subtracting the background noise (reaction mixture containing no enzyme). The evaluation of the various test products is expressed as a percentage of inhibition of the Aurora activity relative to the control.

[4] = molecular target: T4, Aurora1 (Homo sapiens, UniProt Q96GD4); assay: Aurora1 enzymatic test, NuMA phosphorylation with [33P]ATP, Flashplate; conditions: Aurora-B/INCENP-C3 recombinant complex, 1 μM ATP
T4 construct: His tag (N); made in house
Protocol: as §1, §2
Aurora1: Aurora-B/INCENP-C3 recombinant complex, purified to about 50%, the N-terminal end of Aurora-B of which has been labeled with histidine.
as §3, §4, §5, §6, §7

T4 sequence (Q96GD4 whole entry, species assumed): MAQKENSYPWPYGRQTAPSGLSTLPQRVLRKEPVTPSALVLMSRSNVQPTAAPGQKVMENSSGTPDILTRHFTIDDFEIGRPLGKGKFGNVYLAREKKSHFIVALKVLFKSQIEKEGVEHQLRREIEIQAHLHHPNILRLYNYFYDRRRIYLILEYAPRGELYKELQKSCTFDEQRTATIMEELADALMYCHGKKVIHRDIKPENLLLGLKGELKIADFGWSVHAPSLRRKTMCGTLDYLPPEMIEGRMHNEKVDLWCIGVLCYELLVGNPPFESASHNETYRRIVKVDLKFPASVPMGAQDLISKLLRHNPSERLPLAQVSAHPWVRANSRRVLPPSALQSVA
T4 sequence (Q9NQS7 835-903 partner limits assumed, species assumed): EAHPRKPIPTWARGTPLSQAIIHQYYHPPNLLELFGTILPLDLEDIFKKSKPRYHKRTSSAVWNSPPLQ
T1 sequence (Q02763 776-1124): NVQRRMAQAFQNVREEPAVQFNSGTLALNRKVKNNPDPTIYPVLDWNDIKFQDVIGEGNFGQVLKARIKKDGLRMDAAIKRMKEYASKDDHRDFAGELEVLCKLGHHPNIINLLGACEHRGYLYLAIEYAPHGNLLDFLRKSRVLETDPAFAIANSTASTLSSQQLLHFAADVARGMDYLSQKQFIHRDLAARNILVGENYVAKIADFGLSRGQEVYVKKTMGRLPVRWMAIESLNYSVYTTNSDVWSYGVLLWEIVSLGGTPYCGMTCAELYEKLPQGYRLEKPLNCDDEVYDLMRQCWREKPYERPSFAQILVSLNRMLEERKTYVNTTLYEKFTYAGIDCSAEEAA

## CN(NC(=O)c1cc2c(NC(=O)c3ccc(CN4CCCCC4)cc3)n[nH]c2s1)c1ccccc1 [Example 17a, N-[5-(N′-methyl-N′-phenylhydrazinocarbonyl)-1H-thieno[2,3-c]pyrazol-3-yl]-4-piperidin-1-ylmethylbenzamide]
[1]
  IC50: 482 nM
[2]
  IC50: 175 nM
[3]
  IC50: 7 nM
[4]
  IC50: 59 nM

## CN(NC(=O)c1cc2c(NC(=O)c3ccc(CN4CCCCC4)cc3)n[nH]c2s1)c1ccc(Cl)cc1 [Example 17b, N-[5-(N′-(4-chlorophenyl)-N′-methylhydrazinocarbonyl)-1H-thieno[2,3-c]-pyrazol-3-yl]-4-piperidin-1-ylmethylbenzamide]
[1]
  IC50: 230 nM
[2]
  IC50: 93 nM
[3]
  IC50: 35 nM
[4]
  IC50: 335 nM

## CN(NC(=O)c1cc2c(NC(=O)c3ccc(CN4CCCC4)cc3)n[nH]c2s1)c1ccccc1 [Example 18a, N-[5-(N′-methyl-N′-phenylhydrazinocarbonyl)-1H-thieno[2,3-c]pyrazol-3-yl]-4-pyrrolidin-1-ylmethylbenzamide]
[1]
  IC50: 624 nM
[2]
  IC50: 181 nM
[3]
  IC50: 14 nM
[4]
  IC50: 122 nM

## CN(NC(=O)c1cc2c(NC(=O)c3ccc(CN4CCCC4)cc3)n[nH]c2s1)c1ccc(Cl)cc1 [Example 18b, N-[5-(N′-(4-chlorophenyl)-N′-methylhydrazinocarbonyl)-1H-thieno[2,3-c]pyrazol-3-yl]-4-pyrrolidin-1-ylmethylbenzamide]
[1]
  IC50: 388 nM
[2]
  IC50: 96 nM
[3]
  IC50: 50 nM
[4]
  IC50: 287 nM

## CN(NC(=O)c1cc2c(NC(=O)c3ccc(CN4CCC4)cc3)n[nH]c2s1)c1ccccc1 [Example 19, 4-azetidin-1-ylmethyl-N-[5-(N′-methyl-N′-phenylhydrazinocarbonyl)-1H-thieno[2,3-c]pyrazol-3-yl]benzamide]
[1]
  IC50: 888 nM
[2]
  IC50: 239 nM
[3]
  IC50: 26 nM
[4]
  IC50: 304 nM

## CN(C)CCN(C)Cc1ccc(C(=O)Nc2n[nH]c3sc(C(=O)NN(C)c4ccccc4)cc23)cc1 [Example 20a, 4-{[(2-dimethylaminoethyl)methylamino]methyl}-N-[5-(N′-methyl-N′-phenylhydrazinocarbonyl)-1H-thieno[2,3-c]pyrazol-3-yl]benzamide]
[1]
  IC50: 842 nM
[2]
  IC50: 347 nM
[3]
  IC50: 70 nM
[4]
  IC50: 190 nM

## CN(C)CCN(C)Cc1ccc(C(=O)Nc2n[nH]c3sc(C(=O)NN(C)c4ccc(Cl)cc4)cc23)cc1 [Example 20b, N-{5-[N′-(4-chlorophenyl)-N′-methylhydrazinocarbonyl]-1H-thieno[2,3-c]pyrazol-3-yl}-4-{[(2-dimethylaminoethyl)methylamino]methyl}benzamide]
[1]
  IC50: 369 nM
[2]
  IC50: 109 nM
[3]
  IC50: 75 nM
[4]
  IC50: 155 nM

## CN(NC(=O)c1cc2c(NC(=O)c3ccc(CN4CCCOCC4)cc3)n[nH]c2s1)c1ccccc1 [Example 21a, N-[5-(N′-methyl-N′-phenylhydrazinocarbonyl)-1H-thieno[2,3-c]pyrazol-3-yl]-4-perhydro-1,4-oxazepin-4-ylmethylbenzamide]
[1]
  IC50: 430 nM
[2]
  IC50: 122 nM
[3]
  IC50: 14 nM
[4]
  IC50: 55 nM

## CN(NC(=O)c1cc2c(NC(=O)c3ccc(CN4CCCOCC4)cc3)n[nH]c2s1)c1ccc(Cl)cc1 [Example 21b, N-{5-[N′-(4-chlorophenyl)-N′-methylhydrazinocarbonyl]-1H-thieno[2,3-c]pyrazol-3-yl}-4-perhydro-1,4-oxazepin-4-ylmethylbenzamide]
[1]
  IC50: 301 nM
[2]
  IC50: 82 nM
[3]
  IC50: 34 nM
[4]
  IC50: 160 nM

## CN(NC(=O)c1cc2c(NC(=O)c3cccc(CN4CCOCC4)c3)n[nH]c2s1)c1ccccc1 [Example 22a, N-[5-(N′-methyl-N′-phenylhydrazinocarbonyl)-1H-thieno[2,3-c]pyrazol-3-yl]-3-morpholin-4-ylmethylbenzamide]
[1]
  IC50: 2210 nM
[2]
  IC50: 717 nM
[3]
  IC50: 81 nM
[4]
  IC50: 147 nM
